In data set [1] the test system is SOD1 mutant mice. The protocol: (§1) Mice Studies were performed on 8 week old female mice overexpressing mutated human superoxide dismutase (codon 93 glycine→alanine G93A (TgN[SOD1-G93A]1Gur(Gurney et al., 1994, Science 264(5166):1772-1775) Jackson Laboratory, Bar Harbor, Me.; “SDO1 mice”) and their wild type littermates. Mice were housed on a 12 hour day/light cycle and (beginning at 45 d of age) allowed ad libitum access to either nimesulide (NMS)-supplemented (19 g/10 kg) chow, delivering ˜[…] per day to the animal, or, as a control, plain NIH-07 formula cold press chow processed into identical ½ inch pellets (Zeigler Bros Inc, Garners, Pa.). Genotyping was conducted at 21 days of age as described in Gurney et al., 1994, Science 264(5166):1772-1775.
(§2) Rotarod and Grid Walking Tests. To assess balance, coordination and muscle strength mice were tested on the accelerating rotarod (7650 Ugo Basile Biol. Res. App., Italy) and grid walking tests. […] For the grid walking test, animals were placed into the distal end of a walled chamber (15 cm W×60 cm L, 20 cm high walls and a wire mesh bottom) suspended 1 meter above the floor. The number of foot misses (entire paw and portion of limb pokes through the wire mesh) while crossing a distance of 60 cm was recorded.

The conditions of data set [2]: for effect on weight: SOD1 or wild type mice, nimesulide diet vs normal diet, weighed weekly. As for the experimental part:
as §1
Health/Neurologic Status. To assess health status mice were weighed weekly and examined for changes in lacrimation/salivation, palpebral closure, ear twitch and pupillary responses, whisker orienting, postural and righting reflexes and Body Condition Score (BCS) (Ullman-Cullere 1999). Finally, a general pathological examination was conducted at time of sacrifice.

The conditions of data set [3]: geriatric patients, periods greater than two years; cited from earlier work.
Another data set can be described thus: in vivo. To be noted: for Kp: female, mouse, brain (cerebral cortex parenchyma) relative to serum, oral. As for the experimental part:
as §1
(§3) Pathology examination. To evaluate molecular changes during the period of therapeutic efficacy of NMS, a sub group of mice were sacrificed by cervical dislocation 95-105 d of age. Blood, brain and lumbar spinal cord samples were then rapidly harvested and prepared for analysis.
Nimesulide and Prostaglandin E2. […] Prostaglandin-E2 expression in the left caudal hemisphere of the brain (including substantia nigra, and motor cortex) was measured by immuno-assay (Cayman Ann Arbor, Mich.), which was performed as follows. Briefly, pulverized brain tissue stored in liquid N2 was homogenized in 0.1M phosphate-buffered saline (containing 1 mM EDTA and 10 μM indomethacin), mixed with an equal volume of ethanol, and centrifuged. The supernatant was diluted with 50 mM acetic buffer and purified through an affinity column (Cayman). The column was equilibrated with column buffer (0.1M phosphate-buffered saline, 7.7 mM NaN3, 0.5 M […]) followed by UltraPure water, the supernatant was then eluted from the 4 ml column by adding the elution solution and allowing it to pass through the packing material. The eluate was then evaporated and re-dissolved in enzyme-linked immunoassay buffer, applied to a 96-well plate pre-coated with goat anti-mouse IgG and incubated with PGE2 monoclonal antibody and (recovery tracer) for 18 hr at 4° C. […]

For data set [4], the system named is SOD1 mutant mice. The protocol: as §1, §2
The source holds these as a separate data set.

A further data set deals with Prostaglandin E2. To be noted: SOD1 (or WT) mice, prophylactic nimesulide in the diet, FIG. 4B. The protocol: as §1, §3
Nimesulide and Prostaglandin E2. […] Prostaglandin-E2 expression in the left caudal hemisphere of the brain (including substantia nigra, and motor cortex) was measured by immuno-assay (Cayman Ann Arbor, Mich.), which was performed as follows. […]

Data set [5] deals with 4.8 kDa protein (also 5.3 and 5.7 kDa proteins) in spinal cord of SOD1 mice. The protocol: as §1, §3
Setting [6] is: SOD1 mice on NMS diet, control diet mean onset at 108 days.

As a reminder, the Kp is tissue or fluid exposure divided by exposure in the circulation.

Where two headings read alike, the source gives them in different places.

`CS(=O)(=O)Nc1ccc([N+](=O)[O-])cc1Oc1ccccc1` [nimesulide, 4-nitro-2-phenoxymethanesulfonanilide]: the “onset of impairment relative to untreated counterparts” value with SOD1 mutant mice [1] (NMS-treated SOD1 mice, rotarod and grid walking tests) is “significant delay”. The “age until which motor skill integrity was exhibited” value in the data set on SOD1 mutant mice [1] (setting [6]) is recorded as 120 days of age; in the data set with SOD1 mutant mice [4] (setting [6]), 124 days of age. Also, the “delay in the onset of motor impairment” value with SOD1 mutant mice [1] (SOD1 mice, nimesulide-supplemented chow vs control diet, n=6, P<0.05, FIG. 1) was found to be 10 days. Besides, the effect on weight entry in data set [2] is “No detectable difference”; in data set [2] (listed as NMS), “no effect”. Besides, the health/neurologic tests entry in data set [2] (all groups, SOD1 groups showed decreased BCS and impaired reflexes after hind limb paralysis) was “unremarkable”. The tolerability result in data set [3] was “well tolerated”. Also, the “nimesulide concentration in serum” value in the data set “in vivo” (delivery through feeding, 2-3 months treatment, at onset of bilateral hind-limb paralysis, FIG. 4A) is reported as “approximately 30 μM”. Besides, the Kp in “in vivo” (TgN[SOD1-G93A]1Gur (SOD1-G93A transgenic)) is around 0.1; in the data set “in vivo” it was 0.1. For the same compound, the “motor ability maintained beyond SOD1 mice fed control diet” value in the data set on SOD1 mutant mice [4] (SOD1 mice, nimesulide diet, n=6, P<0.05 on days 113, 115, 122, 124, FIG. 2) is on record as 10 days. Moreover, in the data set on Prostaglandin E2, the PG-E2 content result is reported as “decreased”. For the same compound, in data set [5] (SOD1 mice with NMS treatment, prior to onset of motor impairment, FIGS. 3A and B), the “level of approximately 4.8 kDa protein (negatively charged at pH 9) in spinal cord” value was “regulated back to control levels”. Besides, the “levels of approximately 5.3 and 5.7 kDa proteins” value in data set [5] (SOD1 mice, lumbar spinal cord, proteins increase with disease progression) is “decrease”.

Values taken from US20060041022A1, “Treatment of amyotrophic lateral sclerosis with nimesulide” (priority 2002, published 2006).
